Measurements from patent US7723366B2 (Chugai Seiyaku Kabushiki Kaisha, priority 2001, dated 2010).

Experiments:
[1] = molecular target: T1, malonyl-CoA decarboxylase prepared from rat heart (Rattus norvegicus, UniProt Q920F5); test: In vitro MCD inhibitory assay (spectrophotometric, 96 well); format: biochemical; conditions: read-out: IC50 of the MCD inhibitors
T1 construct: from tissue; host or cells: rat heart
T1 sequence (Q920F5 39-492): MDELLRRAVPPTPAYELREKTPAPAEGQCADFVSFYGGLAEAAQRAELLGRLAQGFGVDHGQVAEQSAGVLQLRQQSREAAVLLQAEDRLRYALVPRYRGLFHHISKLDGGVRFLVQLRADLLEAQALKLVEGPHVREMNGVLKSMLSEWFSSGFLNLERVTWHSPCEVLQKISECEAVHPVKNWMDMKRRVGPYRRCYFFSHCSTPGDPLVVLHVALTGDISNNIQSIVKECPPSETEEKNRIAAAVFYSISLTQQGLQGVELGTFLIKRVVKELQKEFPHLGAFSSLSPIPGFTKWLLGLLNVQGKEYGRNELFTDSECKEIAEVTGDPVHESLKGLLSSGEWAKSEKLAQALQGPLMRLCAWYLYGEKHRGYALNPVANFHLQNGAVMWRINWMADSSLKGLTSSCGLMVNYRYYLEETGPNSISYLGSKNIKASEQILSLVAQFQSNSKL
Experimental: The following reagents are added into a 96 well titer plate: Tris-HCl buffer, 20 μL; DTE, 10 μL; I -malate, 20 μL; NAD, 10 μL; NADH, 25 μL; water, 80 μL; malic dehydrogenase, 5 μL. The contents are mixed and incubated for 2 min followed by the addition of 5 μL of citrate synthase. […] The content is incubated and absorbence at […] is measured.
Active compounds are characterized by the concentration of the compound that caused 50% inhibition of MCD activity (IC50).

[2] = tested on: isolated working hearts from male Sprague-Dawley rats; test: Glucose oxidation and fatty acid oxidation measurement in the perfused rat heart; conditions: compared with known metabolism modulators ranolazine or trimetazidine
Experimental: Isolated working hearts from male Sprague-Dawley rats are subjected to a 60-minute aerobic perfusion period with a modified Krebs-Henseleit solution containing 5 mmol/L glucose; 100 μU/mL insulin; 3% BAS; and 1.2 mmol/L palmitate. Working hearts are used in these studies to approximate the metabolic demand of the heart seen in vivo. (Kantor et al., Circulation Research 86:580-588(2000)). The test compound is added 5 minutes into the perfusion period.
Glucose oxidation rates are determined by the quantitative collection of ^14CO2 produced by hearts perfused with buffer containing […]. Rates of fatty acid oxidation are determined by the quantitative collection of ^14CO2 produced by hearts perfused with buffer containing [^14C]palmitate (McNeill, J. H. in “Measurement of cardiovascular function”, chapter 2, CRC press, New York (1997)).
Active compounds are characterized by an increase in glucose oxidation as compared to control experiment (DMSO). The compounds that caused statistically significant increases in glucose oxidation are considered to be active. The preferred compounds cause statistically significant increases in glucose oxidation at 20 μM. Statistical significance was calculated using the Student's t test for paired or unpaired samples, as appropriate. The results with P<0.05 are considered to be statistically significant.

[3] = tested on: muscle (M) isoform of CPT-I; conditions: read-out: IC50 of malonyl-CoA inhibition of CPT-I; cited from earlier work
[4] = tested on: human breast cancer cells and xenografts; conditions: cited from earlier work

IC50 [1] [nM]	SMILES	other results
54	CCN(C(=O)Nc1ccccc1)c1ccc2nc(S)sc2c1 [Table 3; entry 5]	effects in metabolism shift compared with ranolazine or trimetazidine [2]: more profound effects in metabolism shift
–	CC(C)(COP(=O)(O)OP(=O)(O)OC[C@H]1O[C@@H](n2cnc3c(N)ncnc32)[C@H](O)[C@@H]1OP(=O)(O)O)[C@@H](O)C(=O)NCCC(=O)NCCSC(=O)CC(=O)O [Malonyl-CoA]	IC50 [3]: 30 nM
–	CCOC(=O)c1csc(S)n1 [Table 8; entry 1, Ethyl 2-Mercapto-1,3-thiazole-4-carboxylate]	melting point: 120 to 121 °C
–	CCCCCCCCCCCCCCOc1ccc(C(=O)O)o1 [TOFA, 5-(tetradecyloxy)-2-furoic acid]	malonyl-CoA level ([4]; breast carcinoma cells): 60 % of the control; antitumor activity [4]: does not show any antitumor activity
1020	O=C(COc1ccccc1)N(Cc1ccccc1)c1ccc2nc(S)sc2c1 [Table 4; entry 1, N-(2-mercapto-1,3-benzothiazol-6-yl)-N-(phenylmethyl)-2-(phenyloxy)acetamide]	–
240	S=C(Nc1ccccc1)N(Cc1ccccc1)c1ccc2nc(S)sc2c1 [Table 3; entry 8]	–
263	CCCN(C(=O)N(CC(C)C)CC(C)C)c1ccc2nc(S)sc2c1 [Table 5; entry 5]	–
65	CCCCCCN(C(=O)Nc1cc(OC)cc(OC)c1)c1ccc2nc(S)sc2c1 [Table 3; entry 1, N′-[3,5-bis(methyloxy)phenyl]-N-hexyl-N-(2-mercapto-1,3-benzothiazol-6-yl)urea]	effects in metabolism shift compared with ranolazine or trimetazidine [2]: more profound effects in metabolism shift
2620	Sc1nc2ccc(NCc3ccccc3)cc2s1 [Table 2; entry 3, 6-[(phenylmethyl)amino]-1,3-benzothiazole-2-thiol]	–
535	CCCCCCNc1ccc2nc(S)sc2c1 [Table 2; entry 1, 6-(hexylamino)-1,3-benzothiazole-2-thiol]	–
466	O=S(=O)(c1ccc2sc(S)nc2c1)N1CCCCC1 [Table 7; entry 2]	–
